Measured values published in patent publication US20160213657A1, “PHARMACEUTICAL COMPOSITION FOR TREATMENT AND/OR PREVENTION OF PULMONARY DISEASE” (UBE INDUSTRIES, LTD., priority 2013, published 2016).
Read-outs that look alike come from different tables or passages of the source.

Experiments:
human EP2 receptor = human EP2 receptor (Homo sapiens, UniProt P43116); assay: Measurement of EP2 receptor binding action ([3H]prostaglandin E2 displacement)
Experimental: Measurement of EP2 Receptor Binding Action
The membrane fraction was collected on glass fiber filter paper (GF/B, manufactured by Whatman) using a cell harvester (M30R, manufactured by Brandel), and after washing with a buffer solution (10 mM MES-KOH (pH 6.0), 10 mM MgCl2), radioactivity was measured with a liquid scintillation analyzer (2000CA, manufactured by Packard).
Ki=IC50/(1+([^3H]prostaglandin E2 concentration/Kd))
Furthermore, the dissociation constant (Kd value) was calculated by Scatchard analysis.

[1] = system: LPS-induced TNFα production of human peripheral blood mononuclear cells; assay: Test of inhibition of LPS-induced TNFα production using human peripheral blood mononuclear cells; format: cell-based; conditions: read-out: IC50 value (nM) of TNFα production inhibitory action of human PBMC
Experimental: Test of Inhibition of LPS-Induced TNFα Production Using Human Peripheral Blood Mononuclear Cells
Peripheral blood collected in the presence of heparin from healthy subjects was diluted two-fold with PBS containing 2 (V/V) % FBS. Hemocyte separation solution (Ficoll Paque™, manufactured by GE Healthcare Science) was added to SepMate™-50 (manufactured by […] Technologies Inc.) followed by layering the diluted blood thereon. A peripheral blood mononuclear cell (hereinafter abbreviated as PBMC) layer was recovered by centrifuging for 10 minutes under conditions of 20° C. and 1200×g. The resulting PBMCs were further centrifuged and washed twice followed by suspending in RPMI1640 medium containing 1 (V/V) % FBS for use in the following test.
A test of inhibition of LPS-induced TNFα production was performed by partially modifying the method of Mary et al. (Journal of Pharmacology and Experimental Therapeutics, 284, 420 (1998)). 185 μL of PBMC suspension prepared to a final concentration of 5×10^5 cells/mL was added to a 96-well plate, subsequently 10 μL of RPMI1640 medium, containing 1 (V/V) % DMSO in which a test compound was dissolved, was added to each well (DMSO final concentration: 0.05 (V/V) %). RPMI1640 medium containing 1 (V/V) % DMSO was similarly added to a well to which test compounds had not been added. After incubating for 1 hour in a carbon dioxide gas incubator, 5 μL of RPMI1640 medium containing LPS (L2880-500MG, manufactured by Sigma) was added to each well (LPS final concentration: 100 ng/mL). 5 μL of RPMI1640 medium was added to a non-LPS stimulation well. After culturing for about 18 hours in a carbon dioxide gas incubator, the culture supernatant was recovered. The recovered culture supernatant was stored at −20° C. until measurement of TNFα content.
A sandwich ELISA kit (Quantikine DTA00c, manufactured by R&D Systems) was used to measure TNFα content. The TNFα content of each sample was calculated from a standard curve of E. coli-derived human recombinant TNF provided with the kit. TNFα production inhibition rate at each test compound concentration was calculated based on a value of 100% for the amount of TNFα produced by LPS in the case of only adding DMSO. The concentration of test compound that inhibited TNFα production by 50% was calculated as the IC50 value (nM) from the relationship between concentration of the added test compound and TNFα production inhibition rate of the test compound.

[2] = system: neutrophil infiltration of the rat lung; assay: Inhibitory effect on neutrophil infiltration of rat lung (LPS intratracheal, BALF); format: in vivo; conditions: SD rats; approx. 0.1 mg/Kg intratracheally 1 hour prior to LPS; BALF 4 hours after LPS
Experimental: Inhibitory Effect on Neutrophil Infiltration of Rat Lung
A test of inhibition of neutrophil infiltration of the rat lung was performed by partially modifying the method of Spond et al. (Pulmonary Pharmacology and Therapeutics, 14, 157 (2001)). 25 μL (approx. 4 μg/Kg) of physiological saline solution containing LPS (L2880-500MG, manufactured by Sigma) (concentration: 0.04 mg/mL) was administered intratracheally under isoflurane inhalation anesthesia into SD rats fasted for about 16 hours (males, 7-8 weeks old, body weights: 240 g to 270 g (average: approx. 250 g), supplied by Charles River Laboratories, Japan). A Microsprayer™ (IA-1C-M, manufactured by PennCentury) was used for intratracheal administration.
Dosing solutions of the test compounds were prepared by dissolving the test compounds in a 0.1 mol/L or 1 mol/L aqueous sodium hydroxide solution followed by adding medium and neutralizing (final test compound concentration: 1 mg/mL). PBS or phosphate buffer solution (20 mM, pH=7.4) was used for the medium. 25 μL (approx. 0.1 mg/Kg) of the test compound solution prepared in this manner was administered intratracheally in the same manner as LPS administration 1 hour prior to administration of LPS. Medium was administered to a control group. Furthermore, 6 animals were used in the test compound dosing groups and control group, respectively. […]
The number of white blood cells present in the BALF suspension was measured using a multiparameter automated hematology analyzer (KX-21, manufactured by Sysmex). […] Next, after staining the cells using the Diff-Quik staining kit (Cat. No. 16920, manufactured by Sysmex), the number of neutrophils present among 300 white blood cells was measured under a light microscope (BH-2, manufactured by Olympus) followed by calculating the ratio of neutrophils to white blood cells (NR=the number of neutrophils among 300 white blood cells/300). […]
The number of neutrophils present in the BALF cell suspension was measured using a multiparameter automated hematology analyzer (XT-2000iV, manufactured by Sysmex). […]

[3] = membrane fraction of HEK293 cells expressing human EP2 receptor, [3H]prostaglandin E2 10 nM, 30° C., 60 minutes, read-out: Ki value (nM) of EP2 receptor binding action

Sequence of human EP2 receptor (P43116 whole entry): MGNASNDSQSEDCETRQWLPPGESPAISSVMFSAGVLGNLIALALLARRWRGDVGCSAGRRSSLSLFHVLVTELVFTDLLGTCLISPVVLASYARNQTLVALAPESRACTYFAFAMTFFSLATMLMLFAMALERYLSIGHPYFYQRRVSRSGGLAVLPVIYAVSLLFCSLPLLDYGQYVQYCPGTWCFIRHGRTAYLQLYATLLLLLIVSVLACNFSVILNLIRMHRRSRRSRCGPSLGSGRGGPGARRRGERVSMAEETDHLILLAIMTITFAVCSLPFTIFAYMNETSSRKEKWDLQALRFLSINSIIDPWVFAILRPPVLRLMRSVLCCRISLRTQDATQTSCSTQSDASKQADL

IC50 ([1]; LPS 100 ng/mL, culture about 18 hours, TNFα by ELISA) [nM] | SMILES | Ki (human EP2 receptor; [3]) [nM] | IC50 ([1]; Homo sapiens, PBMC, 18 h) [nM] | Inhibition rate of pulmonary neutrophil infiltration [2] [%] | Ki (human EP2 receptor) [nM]
> 300 | CCCc1cccc(-c2ccc(CN(Cc3cccc(NCC(=O)O)n3)S(=O)(=O)c3ccccn3)cc2)c1 [Comparative Example 1, {6-[(3′-Propylbiphenyl-4-ylmethyl)(pyridin-2-ylsulfonyl)aminomethyl]pyridin-2-ylamino}acetate, reference compound] | 1.1 | – | – | –
– | CC=Cc1cccc(-c2ccc(CN(Cc3cccc(NCC(=O)O)n3)S(=O)(=O)c3ccccn3)cc2)c1 [Example 2] | 0.53 | – | – | –
– | CC#Cc1cccc(-c2ccc(CN(Cc3cccc(NCC(=O)O)n3)S(=O)(=O)c3ccccn3)cc2)c1 [Example 4, (6-{[3′-(1-Propynyl)biphenyl-4-ylmethyl](pyridin-2-ylsulfonyl)aminomethyl}-pyridin-2-ylamino)acetic acid] | 0.8 | 3.3 | 71 | –
– | CC#Cc1cccc(-c2ccc(CN(Cc3cccc(NCC(=O)O)n3)S(=O)(=O)c3cccnc3)cc2)c1 [Example 6, (6-{[3′-(1-Propynyl)biphenyl-4-ylmethyl](pyridin-3-ylsulfonyl)aminomethyl}-pyridin-2-ylamino)acetic acid] | – | 9.4 | – | 0.75
– | CCOc1cccc(-c2ccc(CN(Cc3cccc(NCC(=O)O)n3)S(=O)(=O)c3ccccn3)cc2)c1 [Example 7, {6-[(3′-Ethoxybiphenyl-4-ylmethyl)(pyridin-2-ylsulfonyl)aminomethyl]-pyridin-2-ylamino}acetic acid] | – | 20 | – | 0.61
– | CCOc1cccc(-c2ccc(CN(Cc3cccc(NCC(=O)O)n3)S(=O)(=O)c3cccnc3)cc2)c1 [Example 9, {6-[(3′-Ethoxybiphenyl-4-ylmethyl)(pyridin-3-ylsulfonyl)aminomethyl]-pyridin-2-ylamino}acetic acid] | – | – | – | 0.8
– | CCOc1cccc(-c2ccc(CN(Cc3cccc(NCC(=O)O)n3)S(=O)(=O)c3ccccc3)cc2)c1 [Example 10, {6-[(Benzenesulfonyl)(3′-ethoxybiphenyl-4-ylmethyl)aminomethyl]pyridin-2-ylamino}acetic acid] | – | 18 | – | 0.97
– | CCOc1cccc(-c2ccc(CN(Cc3cccc(NCC(=O)O)n3)S(=O)(=O)c3cccs3)cc2)c1 [Example 11, {6-[(3′-Ethoxybiphenyl-4-ylmethyl)(thiophen-2-ylsulfonyl)aminomethyl]-pyridin-2-ylamino}acetic acid] | – | 23 | – | –
– | CCOc1cccc(-c2ccc(CN(Cc3cccc(NCC(=O)O)n3)S(=O)(=O)c3ccccn3)cc2)n1 [Example 12, (6-{[4-(6-Ethoxypyridin-2-yl)benzyl](pyridin-2-ylsulfonyl)aminomethyl}-pyridin-2-ylamino)acetic acid] | – | 16 | – | –
– | CC#Cc1cccc(-c2ccc(CN(Cc3cccc(NCC(=O)O)n3)S(=O)(=O)c3cccs3)cc2)c1 [Example 14, (6-{[3′-(1-Propynyl)biphenyl-4-ylmethyl](thiophen-2-ylsulfonyl)-aminomethyl}pyridin-2-ylamino)acetic acid] | 0.9 | 13 | 65 | –
– | CC#Cc1cccc(-c2ccc(CN(Cc3cccc(NCC(=O)O)n3)S(=O)(=O)c3ccccc3)cc2)c1 [Example 16, (6-{(Benzenesulfonyl)[3′-(1-propynyl)biphenyl-4-ylmethyl]aminomethyl}-pyridin-2-ylamino)acetic acid] | – | 15 | 66 | 0.95
– | CC#Cc1cccc(-c2ccc(CN(Cc3cccc(NCC(=O)O)n3)S(=O)(=O)c3ccsc3)cc2)c1 [Example 18, (6-{[3′-(1-Propynyl)biphenyl-4-ylmethyl](thiophen-3-ylsulfonyl)-aminomethyl}pyridin-2-ylamino)acetic acid] | 0.99 | 3.2 | – | –
